Assays:
Type in all cases: in vivo, Balb/c mice
[1] = system: LPS-induced ALI/ARDS model mice; assay: Lung pathology score (HE staining) in LPS-induced ALI/ARDS mice; settings: left lung HE staining, 24 hours after LPS; four categories each scored 0 to 4
Description: LPS induced model was given again after 6 hours, and the dose was the same as that of the first administration. […] The mice were euthanized with excess carbon dioxide. After the maximum blood volume was collected from the heart, the left lung was fixed with neutral formaldehyde and embedded in paraffin, sliced and HE staining, photographed to observe the lung injury and score.
Lung pathology scoring criteria: (1) alveolar congestion; (2) hemorrhage; (3) neutrophil infiltration into airspace or vascular wall; (4) alveolar wall/thickness formed by hyaline membrane.

[2] = Body weight of LPS-induced ALI/ARDS mice; settings: oral dosing 0.5 h before and 6 hours after LPS (146 150 mg/kg, 41 75 mg/kg, 450 100 mg/kg, dexamethasone 10 mg/kg); 24 hours after LPS; Mean±SEM
Description: (§1) LPS induced model was given again after 6 hours, and the dose was the same as that of the first administration. After 24 hours from LPS induced model, all mice were weighed, the animals used were anesthetized and the alveolar lavage fluid was collected, the lower cell pellets were collected after centrifugation, and the cells were resuspended, fixed with methanol and stained with Wright-Giemsa, and the eosinophils, neutrophils, macrophages and lymphocytes were counted by an optical microscope. The mice were euthanized with excess carbon dioxide. After the maximum blood volume was collected from the heart, the left lung was fixed with neutral formaldehyde and embedded in paraffin, sliced and HE staining, photographed to observe the lung injury and score.

[3] = system: IL-6; assay: IL-6 in alveolar lavage fluid of LPS-induced ALI/ARDS mice (Elisa); settings: for Inhibition of IL-6 (%): oral single dose 0.5 h before LPS (146 150 mg/kg, 41 75 mg/kg, 450 100 mg/kg, dexamethasone 10 mg/kg), alveolar lavage fluid supernatant 4 hours after LPS
Description: (§2) After LPS induced model for 4 hours, all mice were anesthetized and alveolar lavage fluid was collected, and the supernatant was collected by centrifuging alveolar lavage fluid. The levels of TNF-α, IL-6 and IL-1β in the supernatant were detected by enzyme-linked immunosorbent assay (Elisa).

[4] = system: LPS-induced ALI/ARDS model mice; assay: Cell count of alveolar lavage fluid in LPS-induced ALI/ARDS mice; settings: 24 hours after LPS, oral dosing 0.5 h before and 6 hours after LPS
Description: as §1

[5] = system: IL-1β; assay: IL-1β in alveolar lavage fluid of LPS-induced ALI/ARDS mice (Elisa); settings: for Inhibition of IL-1β (%): oral single dose 0.5 h before LPS (146 150 mg/kg, 41 75 mg/kg, 450 100 mg/kg, dexamethasone 10 mg/kg), alveolar lavage fluid supernatant 4 hours after LPS
Description: as §2

[6] = system: TNF-α; assay: TNF-α in alveolar lavage fluid of LPS-induced ALI/ARDS mice (Elisa); settings: for Inhibition of TNF-α (%): oral single dose 0.5 h before LPS (146 150 mg/kg, 41 75 mg/kg, 450 100 mg/kg, dexamethasone 10 mg/kg), alveolar lavage fluid supernatant 4 hours after LPS
Description: as §2

[7] = after acting for 4 hours, comparison between compounds 146, 450, 41 and model group

SMILES: C[C@@H]1C[C@H]2[C@@H]3CCC4=CC(=O)C=C[C@]4(C)[C@@]3(F)[C@@H](O)C[C@]2(C)[C@@]1(O)C(=O)CO [Dexamethasone, dexamethasone]
- Pulmonary pathology score [1]: 3.50
- Weight [2]: 18.91 ± 0.74 g
- Inhibition of IL-6 (%) [3]: 0.00%
- Eosinophils (*10^4) [4]: 3.17 *10^4
- Lymphocytes (*10^4) [4]: 3.25 *10^4
- Macrophages (*10^4) [4]: 108.20 *10^4
- Neutrophils (*10^4) [4]: 361.63 *10^4
- Total cell count (*10^4) [4]: 476.25 *10^4
- Inhibition of IL-1β (%) [5]: 0.00%
- Inhibition of TNF-α (%) [6]: 128.70%

SMILES: Cc1cc(-c2nc(C(=O)Nc3cc4oc(N5CCOCC5)nc4nc3N3CC[C@@H](O)C3)co2)ccn1 [Compound 41, (R)-N-(5-(3-hydroxypyrrolidine-1-yl)-2-morpholinoxazo [4,5-b]pyridine-6-yl)-2-(2-methylpyridine-4-yl) oxazole-4-formamide]
- Pulmonary pathology score [1]: 4.17
- Weight [2]: 19.45 ± 0.71 g
- Inhibition of IL-6 (%) [3]: 21.40%
- Eosinophils (*10^4) [4]: 2.81 *10^4
- Lymphocytes (*10^4) [4]: 3.71 *10^4
- Macrophages (*10^4) [4]: 89.06 *10^4
- Neutrophils (*10^4) [4]: 466.17 *10^4
- Total cell count (*10^4) [4]: 561.75 *10^4
- Inhibition of IL-1β (%) [5]: 52.00%
- Inhibition of TNF-α (%) [6]: 12.90%

SMILES: CC[C@@H]1[C@H](F)C(=O)N[C@@H]1COc1nccc2cc(C(N)=O)c(OC)cc12 [Compound 450]
- Pulmonary pathology score [1]: 4.83
- Weight [2]: 18.68 ± 0.4 g
- IL-6 inhibitory effect (in words) [3, 7]: significantly lower than that of compound 146
- Inhibition of IL-6 (%) [3]: 36.40%
- Eosinophils (*10^4) [4]: 3.11 *10^4
- Lymphocytes (*10^4) [4]: 2.74 *10^4
- Macrophages (*10^4) [4]: 74.91 *10^4
- Neutrophils (*10^4) [4]: 386.74 *10^4
- Total cell count (*10^4) [4]: 467.50 *10^4
- IL-1β inhibitory effect (in words) [5, 7]: significantly lower than that of compound 146
- Inhibition of IL-1β (%) [5]: 43.90%
- TNF-α inhibitory effect (in words) [6, 7]: significantly lower than that of compound 146
- Inhibition of TNF-α (%) [6]: 28.70%

Source: patent publication US20230210833A1, “USE OF IRAK4 INHIBITOR IN TREATMENT OF ACUTE LUNG INJURY ALI/ARDS” (SHANGHAI LEADINGTAC PHARMACEUTICAL CO., LTD., priority 2020, published 2023)
